What was measured:
NKCCl [1] = target: T1, NKCCl (Rattus norvegicus, UniProt E9PTX9); assay: Reversal potential of stimulus-evoked GABAA-PSCs in immature CA3 pyramidal cells; type: cell-based
T1 construct: gramicidin perforated patch clamped CA1 pyramidal neuron in an acute hippocampal slice from a P5 rat; from tissue; host or cells: acute hippocampal slices of P3-P6 male Sprague-Dawley rats; CA1 pyramidal neurons
T1 sequence (E9PTX9 1-1203): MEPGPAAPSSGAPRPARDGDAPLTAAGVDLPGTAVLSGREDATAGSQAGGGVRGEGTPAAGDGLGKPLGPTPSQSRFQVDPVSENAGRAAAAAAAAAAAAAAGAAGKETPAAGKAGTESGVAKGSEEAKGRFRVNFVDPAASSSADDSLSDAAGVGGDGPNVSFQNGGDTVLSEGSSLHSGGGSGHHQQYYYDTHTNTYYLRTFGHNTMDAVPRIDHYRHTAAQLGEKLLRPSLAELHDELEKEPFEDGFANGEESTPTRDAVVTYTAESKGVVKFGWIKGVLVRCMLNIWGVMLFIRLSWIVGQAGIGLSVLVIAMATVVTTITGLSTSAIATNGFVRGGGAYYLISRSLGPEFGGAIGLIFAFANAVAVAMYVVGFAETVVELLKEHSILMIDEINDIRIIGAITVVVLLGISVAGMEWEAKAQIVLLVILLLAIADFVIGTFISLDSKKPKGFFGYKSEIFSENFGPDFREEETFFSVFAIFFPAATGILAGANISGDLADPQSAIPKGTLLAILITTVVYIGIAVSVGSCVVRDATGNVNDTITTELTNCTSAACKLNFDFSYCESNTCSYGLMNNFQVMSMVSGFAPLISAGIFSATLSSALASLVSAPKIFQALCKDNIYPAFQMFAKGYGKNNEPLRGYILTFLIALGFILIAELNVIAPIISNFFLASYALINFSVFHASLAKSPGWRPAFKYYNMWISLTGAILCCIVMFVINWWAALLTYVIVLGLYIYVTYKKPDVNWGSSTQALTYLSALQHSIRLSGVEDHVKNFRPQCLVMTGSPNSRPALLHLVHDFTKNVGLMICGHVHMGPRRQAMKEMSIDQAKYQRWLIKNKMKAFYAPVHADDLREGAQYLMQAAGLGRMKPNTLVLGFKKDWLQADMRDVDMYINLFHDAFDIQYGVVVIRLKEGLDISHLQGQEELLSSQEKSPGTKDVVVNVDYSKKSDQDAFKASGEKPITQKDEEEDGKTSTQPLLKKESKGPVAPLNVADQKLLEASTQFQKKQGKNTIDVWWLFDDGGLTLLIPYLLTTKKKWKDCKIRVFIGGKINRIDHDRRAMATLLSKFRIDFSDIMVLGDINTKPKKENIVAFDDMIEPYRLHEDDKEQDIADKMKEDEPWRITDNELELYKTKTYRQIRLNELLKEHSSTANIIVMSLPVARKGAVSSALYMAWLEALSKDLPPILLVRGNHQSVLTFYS
Experimental: Cell cultures, such as pyramidal cells, can be used to examine the effects of a pharmaceutical composition of the present invention on GABAA receptor activation. In one exemplary method, selective inhibition of NKCCl by a pharmaceutical composition of the present invention, bumetanide, was tested to examine the relationship between chloride accumulation in neurons, GABAA receptor activation and NKCC1. Specifically, the reversal potential of electrical stimulus evoked GABAA-receptor mediated post-synaptic currents (GABAA-PSCS) in immature P4-P6 CA3 pyramidal cells of the hippocampus was examined in the presence or absence of bumetanide. Electrical stimulation of the stratum radiatum (7 V, 30 us duration) evoked in control conditions a synaptic response that reversed at −42.4±1.7 mV (n=6) and was close to the reversal potential of spontaneous GABAA-PSCS (−46.1±0.7 mV; n=6, p=0.07). Examples of stimulus evoked postsynaptic currents at different holding potentials for individual pyramidal cell and corresponded current-voltage (I-V) relationship are shown in FIG. 1A. […] In presence of bumetanide, stimulus evoked GABAA-PSCs reversed at −46.1±1.9 mV (n=6, p=0.17). […] This in vitro system can be used to test any of the pharmaceutical compositions of the present invention for modulation of GABAA receptor activation. […]

NKCCl [2] = target: T1, NKCCl; assay: Whole-cell voltage clamp, reversal potential of currents elicited by local GABA application (Egaba) in CA1 pyramidal cells; type: cell-based; details: in the presence of bumetanide, n=6 cells from 8, p=0.005, control −37±2.72 mV
From the text: In one example, direct effect of bumetanide on Egaba (excitatory GABAA) can be tested. Here, whole-cell voltage clamp recordings to measure the reversal potential of currents elicited by local application of GABA (10 pM, 10 ms pulse duration) in CA1 pyramidal cells were used.
In one example, electrophysiological recordings are gathered from individual slices and subsequently transferred to a conventional submerged-type chamber and continuously superfused with, for example, oxygenated aCSF. Whole-cell recordings were generated. Patch electrodes were used, made by known methods. For whole-cell recording in voltage-clamp mode pipettes were filled with a buffered solution.

[3] = test system: spontaneous network activity in hippocampal sections; assay: Spontaneous network activity in P4-8 hippocampal sections (whole-cell and extracellular field recordings); type: cell-based, rat
Experimental: In another exemplary in vitro method, simultaneous whole-cell voltage-clamp recordings of CA3 pyramidal cells and extracellular field potential recordings in CA3 pyramidal cell layer were performed to analyze the effects of one of the pharmaceutical compositions of the present invention, bumetanide, on spontaneous network activity in the postnatal (P)4-8 hippocampal sections. Spontaneous neuronal network activity is characterized by large polysynaptic currents mediated by activation of GABAA-receptors and synchronous recurrent population bursts, associated with a barrage of high frequency action potentials from multiple cells (FIG. 1C). […] Synchronous network activity reappeared 10-15 min after removal of bumetanide by washing.
In one exemplary method, experimental procedures were carried out on hippocampal slices of postnatal days 5 (P5) to P12 male Wistar rats. Animals were anaesthetized and decapitated and hippocampal slices were prepared by known methods. […]
From the example outlined above, extracellular field potentials were recorded and microelectrodes known in the art were used for simultaneous recordings of multiple unit activity (e.g. MUA; 500 Hz high-pass filter), population field activity in EEG band (1-100 Hz), and fast ripple oscillations (200-600 Hz).).

## CCCCNc1cc(C(=O)O)cc(S(N)(=O)=O)c1Oc1ccccc1 [bumetanide, 3-(aminosulfonyl)-5-(butylamino)-4-phenoxybenzoic acid]
NKCCl [1]; bumetanide 10 μM application
  shift in reversal potential of GABAA-PSCs: negative shift
NKCCl [1]; bumetanide 10 μM, P4-P6 CA3 pyramidal cells, n=6, p=0.17, control −42.4±1.7 mV
  reversal potential of stimulus evoked GABAA-PSCs: −46.1±1.9 mV
NKCCl [2]
  Egaba (reversal potential of currents elicited by local application of GABA): −40.35+2.73 mV
[3]; after bumetanide 10 uM
  time until synchronous network activity reappeared after removal by washing: 10 to 15 min
[3]; bath application 10 uM, P4-8 hippocampal sections, n=10
  synchronous bursts of action potentials: rapidly depressed

— patent publication US20070043034A1, “Chlorine Ion Uptake Modulators and Uses Thereof” (priority 2005, published 2007)
